Assay results published in paper PMC7959488, “Identify potent SARS-CoV-2 main protease inhibitors via accelerated free energy perturbation-based virtual screening of existing drugs” (Proceedings of the National Academy of Sciences of the …, 2020).
Counter-ions that a name gives are not always drawn. Like-named read-outs stand apart in the source and are kept apart here.

Legend:
[1] = test system: human factor Xa; conditions: experimental binding free energy; ligand named by PDB code of its complex; cited from earlier work
[2] = test system: microsomal prostaglandin E2 synthase 1 (mPGES-1); conditions: cited from earlier work
[3] = test system: SARS-CoV-2; conditions: cited from earlier work; for activity in vitro against SARS-CoV-2: molecular targets not reported
[4] = test system: BRD4; set-up: method as in Aldeghi et al. (18); conditions: experimental binding free energy; ligand named by PDB code of its complex; ref Aldeghi et al. (18); cited from earlier work
[5] = target: T1, SARS-CoV-2 M^pro (Severe acute respiratory syndrome coronavirus 2, UniProt P0DTD1); conditions: for UEMM-GBSA: unsigned error |ΔGMM-GBSA − ΔGexp|; for UEMM-PBSA: unsigned error |ΔGMM-PBSA − ΔGexp|
[6] = target: T1, SARS-CoV-2 M^pro; experiment: biochemical
[7] = target: T1, SARS-CoV-2 M^pro
[8] = test system: HIV-1 protease; conditions: experimental binding free energy; ligand named by PDB code of its complex; cited from earlier work
[9] = test system: human ether-a-go-go−related gene (hERG) encoded potassium channel Kv11.1; conditions: cited from earlier work
[10] = test system: vesicular stomatitis virus (VSV); assay type: cell-based
[11] = test system: norovirus; conditions: cited from earlier work
[12] = test system: SARS-CoV; conditions: at 1.0 μM; cited from earlier work
[13] = target: T1, SARS-CoV-2 M^pro; conditions: ref [6], [36]; read-out: IC50 (µM), values in the brackets obtained from other published works (converted); cited from earlier work
[14] = calculated from corresponding Ki values
[15] = converted from IC50 based on the assumption of the competitive inhibition without covalent binding, read-out: Ki
[16] = substrate concentration 20 µM, 500 nM enzyme, ∼50 values estimated from single-concentration assay, read-out: IC50

For COc1cc(Cl)cc(C(=O)Nc2ccc(Cl)cn2)c1NC(=O)c1scc(CN(C)C2=NCCO2)c1Cl [1MQ6], the “∆Gexp” value [1] is listed as -15.2 kcal/mol.
For OCCN(CCO)c1nc(N2CCCCC2)c2nc(N(CCO)CCO)nc(N3CCCCC3)c2n1 [DIP, dipyridamole], the “inhibition of mPGES-1” value [2] is listed as “weak inhibitor” and the EC50 ([3]; raw antiviral activity data reported separately, read-out: EC50, suppression of SARS-CoV-2 replication) is listed as 0.1 µM.
For COc1cc(OC)c2c(=O)[nH]c(-c3cc(C)c(OCCO)c(C)c3)nc2c1 [4MR4], the “∆Gexp” value [4] is listed as -7.8 kcal/mol.
Molecule CC(C)[C@H](N)C(=O)OCCOCn1cnc2c(=O)[nH]c(N)nc21 [Valacyclovir hydrochloride] has a UEMM-GBSA [5] of 10.2 kcal/mol, a UEMM-PBSA [5] of 12.7 kcal/mol and a ΔGexp [6, 14] of -8.1 kcal/mol. The Ki [6, 15] was 1.09 ± 0.06 µM, the IC50 [6, 16] was 16.7 ± 0.9 µM and the UEFEP-ABFE [7] was 1.9 kcal/mol.
With CN(C)[C@@H]1C(O)=C(C(N)=O)C(=O)[C@@]2(O)C(O)=C3C(=O)c4c(O)cccc4[C@@](C)(O)[C@H]3[C@H](O)[C@@H]12 [Oxytetracycline] the UEMM-GBSA [5] was 6.4 kcal/mol, the UEMM-PBSA [5] was 1.8 kcal/mol and the ΔGexp [6, 14] was -8.2 kcal/mol. For the same molecule, the Ki [6, 15] was 0.99 ± 0.06 µM, the IC50 [6, 16] was 15.2 ± 0.9 µM and the UEFEP-ABFE [7] was 0.6 kcal/mol.
For CC(C)CN(CC(O)C(Cc1ccccc1)NC(=O)OC1COC2OCC(F)(F)C12)S(=O)(=O)c1ccc(N)cc1 (centres unmarked) [4U8W], the “∆Gexp” value [8] is listed as -15.3 kcal/mol.
In the case of Cc1nnc2n1-c1ccc(Cl)cc1C(c1ccccc1)=NC2 [3U5J], the “∆Gexp” value [4] is given as -7.4 kcal/mol.
In the case of Cc1coc(CN(C)C(=O)c2cccc(C(=O)N[C@@H](Cc3ccccc3)[C@H](O)CN(CC(C)C)S(=O)(=O)c3ccc(CO)cc3)c2)n1 [5UPZ], the “∆Gexp” value [8] is given as -12.5 kcal/mol.
For COc1cc(OC)c2c(=O)[nH]c(-c3cc(C)c(O)c(C)c3)nc2c1 [4MR3], the “∆Gexp” value [4] is given as -9.0 kcal/mol.
In the case of CC(C(=O)N1CCOCC1)N1CCC(NS(=O)(=O)c2cc3ccc(Cl)cc3s2)C1=O (centres unmarked) [2J34], the “∆Gexp” value [1] is given as -10.7 kcal/mol.
In the case of CCN(CC)C(=S)SSC(=S)N(CC)CC [Disulfiram, disulfiram], the ΔGexp [6, 14] is reported as -8.8 kcal/mol, the UEFEP-ABFE [7] is reported as 2.2 kcal/mol and the UEFEP-ABFE ([7]; listed as disulfiram) is reported as “about 2.2 kcal/mol”.
For CNC(=O)[C@@H](NC(=O)[C@H](OCc1ccccc1)[C@H](O)[C@@H](O)[C@@H](OCc1ccccc1)C(=O)N[C@H]1c2ccccc2C[C@H]1O)C(C)C [1EBZ], the “∆Gexp” value [8] is given as -12.8 kcal/mol.
Work on CCOc1nc2cccc(C(=O)OC(C)OC(=O)OC3CCCCC3)c2n1Cc1ccc(-c2ccccc2-c2nnn[nH]2)cc1 (centres unmarked) [Candesartan cilexetil, candesartan cilexetil] yielded a UEMM-GBSA [5] of 29.1 kcal/mol, a UEMM-PBSA [5] of 26.9 kcal/mol and a ΔGexp [6, 14] of -9.2 kcal/mol. It also gave a Ki [6, 15] of 0.18 ± 0.02 µM, an IC50 [6, 16] of 2.8 ± 0.3 µM and a UEFEP-ABFE [7] of 0.6 kcal/mol.
COc1ccc2[nH]c([S+]([O-])Cc3ncc(C)c(OC)c3C)nc2c1 (centres unmarked) [Omeprazole] gave a UEMM-GBSA [5] of 16.4 kcal/mol, a UEMM-PBSA [5] of 14.3 kcal/mol and an IC50 [6] of 21 ± 1 µM. The Ki [6] was 1.37 ± 0.06 µM, the ΔGexp [6, 14] was -8.0 kcal/mol and the UEFEP-ABFE [7] was 1.6 kcal/mol.
For O=C(N[C@H]1c2ccccc2C[C@H]1O)[C@H](OCc1ccccc1)[C@H](O)[C@@H](O)[C@@H](OCc1ccccc1)C(=O)N[C@H]1c2ccccc2C[C@H]1O [1EBY], the “∆Gexp” value [8] is listed as -13.2 kcal/mol.
CC(=O)NS(=O)(=O)c1ccc(N)cc1 [Sulfacetamide] gave a UEMM-GBSA [5] of 6.4 kcal/mol, a UEMM-PBSA [5] of 7.3 kcal/mol and an IC50 [6] of ~50 µM. For the same molecule, the Ki [6] was ~3.27 µM, the ΔGexp [6, 14] was -7.5 kcal/mol and the UEFEP-ABFE [7] was 0.5 kcal/mol.
In the case of COc1ccc(-n2nc(C(N)=O)c3c2C(=O)N(c2ccc(N4CCCCC4=O)cc2)CC3)cc1 [2P16], the “∆Gexp” value [1] is given as -13.8 kcal/mol.
With CC(C)Nc1nc2cc(Cl)c(Cl)cc2n1[C@H]1O[C@@H](CO)[C@H](O)[C@@H]1O [Maribavir] the UEMM-GBSA [5] was 25.7 kcal/mol, the UEMM-PBSA [5] was 19.5 kcal/mol and the UEFEP-ABFE ([7]; unsigned error |ΔGFEP-ABFE − ΔGexp|) was 2.2 kcal/mol. The UEFEP-ABFE ([7]; unsigned error |ΔGFEP-ABFE − ΔGexp|, listed as maribavir) was “about 2.2 kcal/mol”.
For Cc1noc(C)c1-c1cc(O)cc(C(O)c2ccccc2)c1 (centres unmarked) [4J0R], the “∆Gexp” value [4] is listed as -8.8 kcal/mol.
For Cc1sc2c(c1C)C(c1ccc(Cl)cc1)=N[C@@H](CC(=O)OC(C)(C)C)c1nnc(C)n1-2 [3MXF], the “∆Gexp” value [4] is listed as -9.6 kcal/mol.
In the case of CCN(CCO)CCCC(C)Nc1ccnc2cc(Cl)ccc12 (centres unmarked) [Hydroxychloroquine, hydroxychloroquine], the IC50 ([9]; read-out: IC50, hERG Kv11.1 block) is given as 10.7 µM, the UEFEP-ABFE [7] is given as 1.1 kcal/mol and the “inhibition of VSV” value [10] is given as “no significant inhibition”. For the same molecule, the “activity in vitro against SARS-CoV-2” value [3] was “active in vitro”.
For O=S1(=O)N(Cc2ccccc2)[C@H](COc2ccccc2)[C@H](O)[C@@H](O)[C@@H](COc2ccccc2)N1Cc1ccccc1 [1AJV], the “∆Gexp” value [8] is given as -10.5 kcal/mol.
For CN1Cc2cc(Br)ccc2NC1=O [4HBV], the “∆Gexp” value [4] is given as -6.3 kcal/mol.
For CCN(CC)CCCC(C)Nc1ccnc2cc(Cl)ccc12 (centres unmarked) [Chloroquine, chloroquine], the UEMM-GBSA [5] is listed as 24.7 kcal/mol, the UEMM-PBSA [5] is listed as 16.1 kcal/mol and the IC50 [9] is listed as 2.5 µM. The “sensitivity of norovirus to treatment” value [11] was “hypersensitive”, the “SARS-CoV replication reduced to” value [12] was 53% and the UEFEP-ABFE [7] was 1.5 kcal/mol. For the same molecule, the “inhibition of VSV” value [10] was “no significant inhibition” and the “activity in vitro against SARS-CoV-2” value [3] was “active in vitro”.
For CC(C)(C)NC(=O)[C@@H]1CN(Cc2cccnc2)CCN1C[C@@H](O)C[C@@H](Cc1ccccc1)C(=O)N[C@H]1c2ccccc2C[C@H]1O [Indinavir], the “activity in vitro against SARS-CoV-2” value [3] is listed as “active in vitro”.
For O=C(Cn1cnc(NC(=O)c2ccc(Cl)s2)n1)Nc1ccc(-n2ccccc2=O)cc1F [2VVV], the “∆Gexp” value [1] is given as -11.2 kcal/mol.
For O=C(NCc1ccccc1)[C@H](OCc1ccccc1)[C@H](O)[C@@H](O)[C@@H](OCc1ccccc1)C(=O)N[C@H]1c2ccccc2C[C@H]1O [1D4H], the “∆Gexp” value [8] is given as -13.6 kcal/mol.
For CCOc1nc2cccc(C(=O)O)c2n1Cc1ccc(-c2ccccc2-c2nnn[nH]2)cc1 [Candesartan, candesartan], the Ki [6] was 0.62 µM.
For O=C(N[C@H]1c2ccccc2C[C@H]1O)[C@@H](C[C@@H](O)[C@@H](OCc1ccccc1)C(=O)N[C@H]1c2ccccc2C[C@H]1O)OCc1ccccc1 [1D4I], the “∆Gexp” value [8] is listed as -12.1 kcal/mol.
Work on CC(=O)OCC(=O)NCCCOc1cccc(CN2CCCCC2)c1 [Roxatidine acetate hydrochloride] yielded a UEMM-GBSA [5] of 22.5 kcal/mol, a UEMM-PBSA [5] of 21.2 kcal/mol and a ΔGexp [6, 14] of -8.0 kcal/mol. The Ki [6, 15] was 1.33 ± 0.02 µM, the IC50 [6, 16] was 20.3 ± 0.4 µM and the UEFEP-ABFE [7] was 0.8 kcal/mol.
For CC(=O)N[C@@H](C)C(=O)N[C@@H](Cc1ccccc1)[C@H](O)CN(Cc1cccs1)S(=O)(=O)c1cc(F)c(F)cc1F [2QHY], the “∆Gexp” value [8] is listed as -10.2 kcal/mol.
In the case of C=C(C)CNC(=O)C1N(C(=O)C(O)C(Cc2ccccc2)NC(=O)COc2c(C)cc(N)cc2C)CSC1(C)C (centres unmarked) [3A2O], the “∆Gexp” value [8] is listed as -12.4 kcal/mol.
For CCOc1cc(-c2c(C)noc2C)cc(C(C)O)c1 (centres unmarked) [3SVG], the “∆Gexp” value [4] is listed as -7.3 kcal/mol.
Work on CC(C)[C@H](N)C(=O)OCC(CO)OCn1cnc2c(=O)nc(N)[nH]c21 (some centres unmarked) [Valganciclovir Hydrochloride] yielded a Ki [6, 15] of 1.09 ± 0.06 µM.
In the case of COC(=O)N[C@H](C(=O)N[C@@H](Cc1ccccc1)[C@@H](O)CN(Cc1ccc(-c2ccccn2)cc1)NC(=O)[C@@H](NC(=O)OC)C(C)(C)C)C(C)(C)C [Atazanavir, atazanavir], the UEMM-GBSA [5] is reported as 30.6 kcal/mol, the UEMM-PBSA [5] is reported as 24.4 kcal/mol and the ΔGexp [6, 14] is reported as -8.6 kcal/mol. For the same molecule, the Ki [6, 15] was 0.49 ± 0.02 µM, the IC50 [6, 16] was 7.5 ± 0.3 µM and the IC50 [13] was 10 µM. For the same molecule, the UEFEP-ABFE [7] was 0.6 kcal/mol.
For CN1CCN=C1c1cccc(Oc2nc(Oc3cc(C(=N)N)ccc3O)c(F)c(N(C)CC(=O)O)c2F)c1 [1FJS], the “∆Gexp” value [1] is given as -13.6 kcal/mol.
Molecule CN/C(=N/CCSCc1nc[nH]c1C)NC#N [Cimetidine] has a UEMM-GBSA [5] of 20.3 kcal/mol, a UEMM-PBSA [5] of 18.7 kcal/mol and an IC50 [6] of ~50 µM. The Ki [6] was ~3.27 µM, the ΔGexp [6] was -7.5 kcal/mol and the UEFEP-ABFE [7] was 1.4 kcal/mol.
In the case of Cc1nnc2n1-c1ccc(Cl)cc1C(c1ccccc1)=NN2C [3U5L], the “∆Gexp” value [4] is given as -8.2 kcal/mol.
